{
  "source": "patent US12454534B2",
  "about": "“Pyrrolo[2,3-b]pyrazines as HPK1 inhibitor and the use thereof” (BEIGENE, LTD., priority 2019, dated 2025)",
  "data": [
    {"target": "T1, HPK1 kinase (aa1-346, Life Technologies) (Homo sapiens, UniProt Q92918)", "T1 construct": "HPK1 kinase (aa1-346, Life Technologies); purchased Life Technologies", "T1 sequence (Q92918 1-346)": "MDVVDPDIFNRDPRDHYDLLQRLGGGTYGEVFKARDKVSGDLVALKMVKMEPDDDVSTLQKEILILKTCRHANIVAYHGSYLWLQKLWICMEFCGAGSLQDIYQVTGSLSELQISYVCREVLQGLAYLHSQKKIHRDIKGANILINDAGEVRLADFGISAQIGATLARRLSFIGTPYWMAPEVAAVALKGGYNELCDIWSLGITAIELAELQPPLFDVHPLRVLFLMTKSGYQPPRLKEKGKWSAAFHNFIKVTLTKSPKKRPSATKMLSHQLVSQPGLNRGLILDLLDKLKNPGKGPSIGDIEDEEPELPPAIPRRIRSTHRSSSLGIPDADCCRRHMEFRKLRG", "test": "HPK1 Kinase Activity Assay at 1 mM ATP (TR-FRET)", "assay_type": "biochemical", "settings": "HPK1 40 nM, read-out: Enzymatic activity IC50", "description": "HPK1 Kinase Activity Assay at 1 mM ATP\nCompounds disclosed herein were tested for inhibition of HPK1 kinase (aa1-346, Life Technologies) activity in assays based on the time-resolved fluorescence-resonance energy transfer (TR-FRET) methodology. The assays were carried out in 384-well low volume black plates in a reaction mixture containing HPK1 kinase (40 nM), 1 mM ATP, 0.5 μM STK1 substrate and 0-10 μM compound in buffer containing 50 mM HEPES, 0.01% BSA, 0.1 mM Orthovanadate, 10 mM MgCl2, 1 mM DTT, pH=7.0, 0.005% Tween-20. The kinase was incubated with the compounds disclosed herein or DMSO for 60 minutes at room temperature and the reaction was initiated by the addition of ATP and STK1 substrate. After reaction at room temperature for 120 minutes, an equal volume of stop/detection solution was added according to the manufacturer's instruction (CisBio). The stop/detection solution contained STK Antibody-Cryptate and XL665-conjugated streptavidin in Detection Buffer. The TR-FRET signals (ratio of fluorescence emission at 665 nm over emission at 620 nm with excitation at 337 nm wavelength) were recorded on a PHERAstar FS plate reader (BMG Labtech). Phosphorylation of STK1 substrate led to the binding of STK Antibody-Cryptate to the biotinylated STK1 substrate, which places fluorescent donor (Eu^3+ cryptate) in close proximity to the accepter (Streptavidin-XL665), thus resulting in a high degree of fluorescence resonance energy transfer. The inhibition of HPK1 in presence of increasing concentrations of compounds was calculated based on the ratio of fluorescence at 665 nm to that at 620 nm. The IC50 for each compound was derived from fitting the data to the four-parameter logistic equation by Graphpad Prism software.", "units": {"IC50": "nM"}, "values": [
      {"compound": "Cc1cc(-c2c[nH]c3ncc(-c4cc(C)c5c(c4)CN(C)CC5)nc23)ccc1C(=O)N(C)C[C@@H](C)O", "note": "[Example 4, (R)-4-(2-(2,5-dimethyl-1,2,3,4-tetrahydroisoquinolin-7-yl)-5H-pyrrolo[2,3-b]pyrazin-7-yl)-N-(2-hydroxypropyl)-N, 2-dimethylbenzamide]", "IC50": 92},
      {"compound": "Cc1cc(-c2cnc3[nH]cc(-c4ccc(C(=O)N(C)C[C@H](C)O)cc4)c3n2)cc2c1CCN(C)C2", "note": "[Example 5, (S)-4-(2-(2,5-dimethyl-1,2,3,4-tetrahydroisoquinolin-7-yl)-5H-pyrrolo[2,3-b]pyrazin-7-yl)-N-(2-hydroxypropyl)-N-methylbenzamide]", "IC50": 21},
      {"compound": "COc1cc(-c2cnc3[nH]cc(-c4cc(F)c(C(=O)N(C)C[C@@H]5CCOC5)c(F)c4)c3n2)cc2c1CN(C)CC2", "note": "[Example 7A, (S)-2,6-difluoro-4-(2-(8-methoxy-2-methyl-1,2,3,4-tetrahydroisoquinolin-6-yl)-5H-pyrrolo[2,3-b]pyrazin-7-yl)-N-methyl-N-((tetrahydrofuran-3-yl)methyl)benzamide]", "IC50": 34},
      {"compound": "COc1cc(-c2cnc3[nH]cc(-c4cc(F)c(C(=O)N(C)C[C@H]5CCOC5)c(F)c4)c3n2)cc2c1CN(C)CC2", "note": "[Example 7B, (R)-2,6-difluoro-4-(2-(8-methoxy-2-methyl-1,2,3,4-tetrahydroisoquinolin-6-yl)-5H-pyrrolo[2,3-b]pyrazin-7-yl)-N-methyl-N-((tetrahydrofuran-3-yl)methyl)benzamide]", "IC50": 31},
      {"compound": "Cc1cc(-c2cnc3[nH]cc(-c4ccc(C(=O)N(C)C[C@@H](C)O)cc4)c3n2)cc2c1CCN(C)C2", "note": "[Example 8, (R)-4-(2-(2,5-dimethyl-1,2,3,4-tetrahydroisoquinolin-7-yl)-5H-pyrrolo[2,3-b]pyrazin-7-yl)-N-(2-hydroxypropyl)-N-methylbenzamide]", "IC50": 36},
      {"compound": "Cc1cc(-c2cnc3[nH]cc(-c4ccc(C(=O)N(C)C[C@@H](C)O)cc4)c3n2)cc2c1CCN(CCN1CCOCC1)C2", "note": "[Example 9, (R)—N-(2-hydroxypropyl)-N-methyl-4-(2-(5-methyl-2-(2-morpholinoethyl)-1,2,3,4-tetrahydroisoquinolin-7-yl)-5H-pyrrolo[2,3-b]pyrazin-7-yl)benzamide]", "IC50": 62},
      {"compound": "Cc1cc(-c2c[nH]c3ncc(-c4cc(C)c5c(c4)CN(C)CC5)nc23)ccc1C(=O)N(C)C[C@H](C)O", "note": "[Example 11, (S)-4-(2-(2,5-dimethyl-1,2,3,4-tetrahydroisoquinolin-7-yl)-5H-pyrrolo[2,3-b]pyrazin-7-yl)-N-(2-hydroxypropyl)-N, 2-dimethylbenzamide]", "IC50": 74},
      {"compound": "COc1cc(-c2cnc3[nH]cc(-c4ccc(C(=O)N(C)C[C@H](C)O)c(C)c4)c3n2)cc2c1CCN(C)C2", "note": "[Example 12, (S)—N-(2-hydroxypropyl)-4-(2-(5-methoxy-2-methyl-1,2,3,4-tetrahydroisoquinolin-7-yl)-5H-pyrrolo[2,3-b]pyrazin-7-yl)-N, 2-dimethylbenzamide]", "IC50": 52},
      {"compound": "Cc1cc(-c2cnc3[nH]cc(-c4ccc(C(=O)N(C)C[C@H](C)O)cc4)c3n2)cc2c1CCN(CCN1CCOCC1)C2", "note": "[Example 13, (S)—N-(2-hydroxypropyl)-N-methyl-4-(2-(5-methyl-2-(2-morpholinoethyl)-1,2,3,4-tetrahydroisoquinolin-7-yl)-5H-pyrrolo[2,3-b]pyrazin-7-yl)benzamide]", "IC50": 45},
      {"compound": "CN[C@H]1CCN(C(=O)c2ccc(-c3c[nH]c4ncc(-c5cc(C)c6c(c5)CN(C)CC6)nc34)cc2)C1", "note": "[Example 14, (S)-(4-(2-(2,5-dimethyl-1,2,3,4-tetrahydroisoquinolin-7-yl)-5H-pyrrolo[2,3-b]pyrazin-7-yl)phenyl) (3-(methylamino)pyrrolidin-1-yl)methanone]", "IC50": 12},
      {"compound": "Cc1cc(-c2c[nH]c3ncc(-c4cc(C)c5c(c4)CN(C)CC5)nc23)ccc1C(=O)N1CC(O)C1", "note": "[Example 17, (4-(2-(2,5-dimethyl-1,2,3,4-tetrahydroisoquinolin-7-yl)-5H-pyrrolo[2,3-b]pyrazin-7-yl)-2-methylphenyl) (3-hydroxyazetidine-1-yl)methanone]", "IC50": 24},
      {"compound": "CN[C@H]1CCN(C(=O)c2ccc(-c3c[nH]c4ncc(-c5cc6c(c(OC)c5)CCN(C)C6)nc34)cc2)C1", "note": "[Example 18, (S)-(4-(2-(5-methoxy-2-methyl-1,2,3,4-tetrahydroisoquinolin-7-yl)-5H-pyrrolo[2,3-b]pyrazin-7-yl)phenyl) (3-(methylamino)pyrrolidin-1-yl)methanone]", "IC50": 7},
      {"compound": "Cc1cc(-c2cnc3[nH]cc(-c4ccc(C(=O)N5CC6(COC6)C5)cc4)c3n2)cc2c1CCN(C)C2", "note": "[Example 19, (4-(2-(2,5-dimethyl-1,2,3,4-tetrahydroisoquinolin-7-yl)-5H-pyrrolo[2,3-b]pyrazin-7-yl)phenyl) (2-oxa-6-azaspiro[3.3]heptan-6-yl)methanone]", "IC50": 13},
      {"compound": "CC(=O)Nc1cc(-c2c[nH]c3ncc(-c4cc(C)c5c(c4)CN(C)CC5)nc23)ccc1C(=O)N(C)C", "note": "[Example 21, 2-acetamido-4-(2-(2,5-dimethyl-1,2,3,4-tetrahydroisoquinolin-7-yl)-5H-pyrrolo[2,3-b]pyrazin-7-yl)-N, N-dimethylbenzamide]", "IC50": 75},
      {"compound": "COc1cc(-c2cnc3[nH]cc(-c4ccc(C(=O)N(C)C)cc4)c3n2)cc2c1CN(C)CC2", "note": "[Example 22, 4-(2-(8-methoxy-2-methyl-1,2,3,4-tetrahydroisoquinolin-6-yl)-5H-pyrrolo[2,3-b]pyrazin-7-yl)-N, N-dimethylbenzamide]", "IC50": 11},
      {"compound": "Cc1cc(-c2c[nH]c3ncc(-c4cc(C)c5c(c4)CN(CCC(=O)N[C@H]4CC[C@H](O)CC4)CC5)nc23)ccc1C(=O)N(C)C", "note": "[Example 23, 4-(2-(2-(3-((trans-4-hydroxycyclohexyl)amino)-3-oxopropyl)-5-methyl-1,2,3,4-tetrahydroisoquinolin-7-yl)-5H-pyrrolo[2,3-b]pyrazin-7-yl)-N, N, 2-trimethylbenzamide]", "IC50": 122},
      {"compound": "Cc1cc(-c2c[nH]c3ncc(-c4cc(C)c5c(c4)CN(CCC(=O)N4CCN(C)CC4)CC5)nc23)ccc1C(=O)N(C)C", "note": "[Example 24, N, N, 2-trimethyl-4-(2-(5-methyl-2-(3-(4-methylpiperazin-1-yl)-3-oxopropyl)-1,2,3,4-tetrahydroisoquinolin-7-yl)-5H-pyrrolo[2,3-b]pyrazin-7-yl)benzamide]", "IC50": 75},
      {"compound": "CNC(=O)CCN1CCc2c(C)cc(-c3cnc4[nH]cc(-c5ccc(C(=O)N(C)C)c(C)c5)c4n3)cc2C1", "note": "[Example 25, N, N, 2-trimethyl-4-(2-(5-methyl-2-(3-(methylamino)-3-oxopropyl)-1,2,3,4-tetrahydroisoquinolin-7-yl)-5H-pyrrolo[2,3-b]pyrazin-7-yl)benzamide]", "IC50": 49},
      {"compound": "Cc1cc(-c2c[nH]c3ncc(-c4cc(C)c5c(c4)CN(CCC(=O)N(C)C)CC5)nc23)ccc1C(=O)N(C)C", "note": "[Example 26, 4-(2-(2-(3-(dimethylamino)-3-oxopropyl)-5-methyl-1,2,3,4-tetrahydroisoquinolin-7-yl)-5H-pyrrolo[2,3-b]pyrazin-7-yl)-N, N, 2-trimethylbenzamide]", "IC50": 63},
      {"compound": "COc1ccc(NC(=O)CCN2CCc3c(C)cc(-c4cnc5[nH]cc(-c6ccc(C(=O)N(C)C)c(C)c6)c5n4)cc3C2)cc1", "note": "[Example 27, 4-(2-(2-(3-(4-methoxyphenylamino)-3-oxopropyl)-5-methyl-1,2,3,4-tetrahydroisoquinolin-7-yl)-5H-pyrrolo[2,3-b]pyrazin-7-yl)-N, N, 2-trimethylbenzamide]", "IC50": 26}
    ]}
  ]
}
